Assay results as given in ChEMBL document CHEMBL4739717, “Methods of treating cartilage disorders through inhibition of clk and dyrk” (2020).
Calls of active or inactive are those of the source. The calls are words filed in the database; no cut-off is given here.

Tests used:
[1] = Induction of chondrogenesis in human MSC assessed as maximum activity at 10 nM incubated for 6 days by rhodamine B and Nile red staining based imaging analysis relative to control; format: functional; settings: BMMSC, 144 h, time 6 day
[2] = Inhibition of IL1-beta induced MMP3 expression levels in human chondrocytes assessed as MMP3 levels incubated for 2hrs followed by IL1-beta stimulation and measured after overnight incubation by LANCE assay; format: functional, cell-based; settings: Chondrocyte
[3] = tested on: Chondrocyte; experiment: Inhibition of IL1-beta induced MMP3 expression levels in human chondrocytes assessed as MMP3 levels incubated for 2hrs followed by IL1-beta stimulation and measured after 24 hrs by qRT-PCR analysis; format: functional; settings: time 26.0 hrs
[4] = Induction of chondrogenesis in human MSC assessed as maximum activity at 2700 nM incubated for 6 days by rhodamine B and Nile red staining based imaging analysis relative to control; format: functional; settings: BMMSC, 144 h, time 6 day
[5] = Inhibition of IL1-beta induced MMP3 expression levels in human chondrocytes assessed as MMP3 levels incubated for 2hrs followed by IL1-beta stimulation and measured after overnight incubation by LANCE assay relative to control; format: functional, Chondrocyte
[6] = target: Dual specificity protein kinase CLK2 (Homo sapiens, UniProt P49760); experiment: Inhibition of recombinant CLK2 (unknown origin) using Ser/Thr 6 peptide as substrate incubated for 1 hr in presence of ATP by FRET assay
Chain of Dual specificity protein kinase CLK2 (P49760 whole entry): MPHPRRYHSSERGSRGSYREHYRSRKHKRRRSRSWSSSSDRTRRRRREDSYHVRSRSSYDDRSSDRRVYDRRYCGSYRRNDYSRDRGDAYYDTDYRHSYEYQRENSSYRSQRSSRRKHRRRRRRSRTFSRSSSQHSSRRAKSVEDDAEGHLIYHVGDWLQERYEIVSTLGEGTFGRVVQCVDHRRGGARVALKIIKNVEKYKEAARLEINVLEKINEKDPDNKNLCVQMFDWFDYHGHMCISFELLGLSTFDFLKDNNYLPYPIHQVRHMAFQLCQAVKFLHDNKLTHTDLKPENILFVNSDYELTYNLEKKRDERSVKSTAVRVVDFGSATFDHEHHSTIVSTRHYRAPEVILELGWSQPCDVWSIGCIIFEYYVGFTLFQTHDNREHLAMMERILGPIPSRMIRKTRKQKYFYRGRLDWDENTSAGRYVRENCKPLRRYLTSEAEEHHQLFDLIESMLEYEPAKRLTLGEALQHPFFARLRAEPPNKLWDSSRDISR

[7] = target: Dual specificity protein kinase CLK3 (Homo sapiens, UniProt P49761); experiment: Inhibition of recombinant CLK3 (unknown origin) using Ser/Thr 18 peptide as substrate incubated for 1 hr in presence of ATP by FRET assay
Chain of Dual specificity protein kinase CLK3 (P49761 whole entry): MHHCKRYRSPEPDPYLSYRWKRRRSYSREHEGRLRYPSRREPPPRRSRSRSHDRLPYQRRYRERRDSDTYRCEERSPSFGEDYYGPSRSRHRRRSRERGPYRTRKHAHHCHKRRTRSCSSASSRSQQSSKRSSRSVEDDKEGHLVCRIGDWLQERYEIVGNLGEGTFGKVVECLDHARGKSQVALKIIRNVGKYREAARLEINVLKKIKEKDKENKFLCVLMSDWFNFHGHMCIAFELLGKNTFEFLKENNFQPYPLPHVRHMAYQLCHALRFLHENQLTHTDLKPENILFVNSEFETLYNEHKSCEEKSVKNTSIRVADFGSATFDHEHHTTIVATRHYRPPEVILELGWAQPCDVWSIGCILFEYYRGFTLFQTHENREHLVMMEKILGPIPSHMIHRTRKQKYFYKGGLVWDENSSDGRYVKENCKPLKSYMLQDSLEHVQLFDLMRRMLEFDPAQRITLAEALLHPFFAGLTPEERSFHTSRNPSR

[8] = Effect on Wnt signaling pathway in human SW480 cells harbouring TCF/LEF luciferase reporter gene and SP5-Luc reporter gene incubated for 36 to 48 hrs by luminescence assay; format: cell-based
[9] = target: Dual specificity tyrosine-phosphorylation-regulated kinase 1A (Homo sapiens, UniProt Q13627); experiment: Inhibition of recombinant DYRK1A (unknown origin) using Ser/Thr 18 peptide as substrate incubated for 1 hr in presence of ATP by FRET assay
[10] = Induction of chondrogenesis in human MSC assessed as incubated for 6 days by rhodamine B and Nile red staining based imaging analysis; format: functional; settings: bmmsc
[11] = tested on: Chondrocyte; experiment: Inhibition of IL1-beta induced MMP-13 expression levels in human chondrocytes assessed as MMP-13 levels incubated for 2hrs followed by IL1-beta stimulation and measured after 24 hrs by qRT-PCR analysis; format: functional; settings: time 26.0 hrs
[12] = Induction of chondrogenesis in human MSC assessed as maximum activity at 300 nM incubated for 6 days by rhodamine B and Nile red staining based imaging analysis relative to control; format: functional; settings: BMMSC, 144 h, time 6 day
[13] = Induction of chondrogenesis in human MSC assessed as maximum activity at 20.58 nM incubated for 6 days by rhodamine B and Nile red staining based imaging analysis relative to control; format: functional; settings: BMMSC, 144 h, time 6 day

| SMILES | Emax at 0.01 µM [1] [%] | EC50 [2] [nM] | Activity [3] | Emax at 2.7 µM [4] [%] | Imax [5] [%] | EC50 [6] [nM] | EC50 [7] [nM] | EC50 [8] [nM] | EC50 [9] [nM] | EC50 [10] [nM] | Activity [11] | Emax at 0.3 µM [12] [%] | Emax at 0.02058 µM [13] [%] |
| --- | --- | --- | --- | --- | --- | --- | --- | --- | --- | --- | --- | --- | --- |
| CN1CCC(Oc2ccc(C(=O)Nc3cc4cc(-c5cnn(C)c5)ccc4cn3)cc2)CC1 | 25.4 | 3000 | inactive |  |  |  |  |  |  |  |  |  |  |
| Cn1cncc1-c1ccc2cnc(NC(=O)c3ccc(F)cc3)cc2c1 |  | 3000 |  | 24.9 |  |  |  |  |  |  |  |  |  |
| Cn1cc(-c2ccc3cnc(NC(=O)c4ccc5c(cnn5C)c4)cc3c2)cn1 |  | 3000 |  |  | 46.9 | 3 | 49 |  |  |  |  |  |  |
| Cn1cc(-c2ccc3cnc(NC(=O)c4cnc5ccccc5c4)cc3c2)cn1 |  | 19.1 |  |  | 41.2 | 4 | 66 |  |  |  |  |  |  |
| O=C(Nc1ccc(N2CCC(F)(F)C2)nc1)c1n[nH]cc1C#Cc1cccnc1 |  | 3000 |  |  | 88.5 | 32 | > 10000 | > 10000 | 21 |  |  |  |  |
| O=C(Nc1cncc(-c2ccc3[nH]nc(-c4cc5cnccc5[nH]4)c3c2)c1)C1CCCCC1 |  | 6.7 |  | 155 | 100 |  |  | 285 | 2 | 30 |  |  |  |
| CN1CCN(c2nccc3[nH]c(-c4n[nH]cc4/C=C/c4cncc(F)c4)nc23)CC1 | 39 | 3000 | inactive |  |  |  |  | 325 | 10 |  | inactive |  |  |
| CC(C)N1CCC(Oc2cc(C(=O)Nc3cc4cc(-c5cnn6c5CCNC6)ccc4cn3)ccn2)CC1 |  | 75.8 | inactive |  |  |  |  |  | 11 |  |  |  |  |
| Cc1n[nH]c2ccc(-c3cncc(O[C@H]4CCNCC4(F)F)n3)cc12 |  |  |  |  |  | 3 | 313 | 227 | 2 | 300 |  | 82.1 |  |
| Cc1nnc(-c2ccc3cnc(NC(=O)c4ccnc(C5=CCN(C)CC5)c4)cc3c2)s1 |  | 143 |  |  | 35.3 | 2 | 14 |  |  |  |  |  |  |
| CN1CCN(c2ccc(NC(=O)c3n[nH]c4ccc(-c5cncc(NC(=O)c6c(F)cccc6F)c5)cc34)cn2)CC1 |  | 3000 |  |  | 54.9 | 1 | 81 | 226 | 3 |  |  |  |  |
| Oc1cncc(-c2ccc3[nH]nc(-c4nc5c(-c6cccc(F)c6)cncc5[nH]4)c3n2)c1 |  |  |  |  |  |  |  | > 10000 | 31 | 20.6 |  |  | 53.6 |
| C[C@@H]1CN(c2ccc(NC(=O)c3n[nH]c4ccc(-c5cncc(CN6CCCCC6)c5)cc34)cn2)C[C@H](C)O1 |  |  |  | 129 |  |  |  | 2.8 |  | 2700 |  |  |  |
| NC1CN(c2cncc(-c3ccc4[nH]nc(-c5nc6ccncc6[nH]5)c4c3)n2)C1 |  | 20.8 |  |  | 61.5 | 1 | 182 | 344 | 3 |  |  |  |  |
| Oc1cncc(-c2ccc3[nH]nc(-c4nc5c(-c6cccc(F)c6)ccnc5[nH]4)c3n2)c1 |  |  |  |  |  |  |  | 375 | 43 | 2.29 |  |  | 59.3 |
| CCNCc1cncc(-c2ccc3[nH]nc(-c4nc5c(-c6cc(F)cc(NCCN(C)C)c6)ccnc5[nH]4)c3n2)c1 |  |  |  |  |  |  |  | > 10000 | 8 | 20.6 |  |  | 149 |
| CN1CCN(c2cc(C(=O)Nc3cc4cc(-c5cnn(C)c5)ccc4cn3)ccn2)CC1 | 27.1 |  |  |  |  |  |  |  |  |  | inactive |  |  |

| SMILES | Emax at 0.01 µM [1] [%] | EC50 [2] [nM] | Activity [3] | Emax at 2.7 µM [4] [%] | Imax [5] [%] | EC50 [6] [nM] | EC50 [7] [nM] | EC50 [8] [nM] | EC50 [9] [nM] | EC50 [10] [nM] | Activity [11] | Emax at 0.3 µM [12] [%] | Emax at 0.02058 µM [13] [%] |
| --- | --- | --- | --- | --- | --- | --- | --- | --- | --- | --- | --- | --- | --- |
| CN1CCN(c2cc(CC(=O)Nc3cc4cc(-c5cnn(C)c5)ccc4cn3)ccn2)CC1 |  | 1060 |  |  | 100 | 10 | 78 |  |  |  |  |  |  |
| Cc1ccc(C(=O)Nc2c[nH]nc2C(=O)Nc2ccc(OCCN3CCCC3)nc2)cn1 |  | 811 |  |  | 23.7 | 24 | 3700 | 119 | 27 |  |  |  |  |
| Fc1cccc(-c2cncc3[nH]c(-c4n[nH]c5ncc(-c6cccnc6)cc45)nc23)c1 |  |  |  |  |  | 5 | 48 | 6 | 12 | 100 |  | 157 |  |
| O=C(Nc1ccc(CN2CCCC2)cc1)c1n[nH]cc1/C=C/c1cccnc1 |  | 3.7 |  | 194 |  |  |  | 988 | 4 | 900 |  |  |  |
| CC(C)Oc1cncc(C(=O)Nc2c[nH]nc2C(=O)Nc2ccc(OC3CCN(C)CC3)nc2)c1 |  | 1.5 |  | 140 |  |  |  | 90.3 | 4 | 2700 |  |  |  |
| CCC(=O)Nc1cncc(-c2ccc3[nH]nc(-c4nc5c(N6CCCCC6)ccnc5[nH]4)c3n2)c1 |  |  |  |  |  |  |  | > 10000 | 90 |  |  |  | 38.3 |
| O=C(Nc1cc2cc(-c3cncc(N[C@H]4CCNC[C@@H]4F)n3)ccc2cn1)C1CC1 |  | 3000 |  | 68 |  | 1 | 11 | 9.5 |  | 2700 |  |  |  |
| CN1CCCn2cc(nn2)-c2nccc3[nH]c(nc23)-c2n[nH]c3ccc(cc23)-c2cncc(c2)C1 | 181 | 3780 | inactive |  |  |  |  | 338 | 4 | 10 | inactive |  |  |
| CC(C)NC(=O)c1n[nH]c2ccc(-c3cncc(CN4CCC(F)(F)CC4)c3)cc12 |  | 8 |  | 104 |  |  |  | 47.1 |  | 2700 |  |  |  |
| Cc1cn(-c2cncc3[nH]c(-c4n[nH]c5ccc(-c6cncc(NC(=O)C(C)(C)C)c6)nc45)nc23)cn1 |  | 1150 |  | 150 |  |  |  | > 10000 | 2 | 100 |  |  |  |
| Fc1cccc(-c2cncc3[nH]c(-c4n[nH]c5ccc(-c6cn[nH]c6)nc45)nc23)c1 |  |  |  |  |  |  | > 10000 | > 10000 | 16 | 20.6 |  |  | 51.8 |
| COc1cncc(-c2ccc3[nH]nc(-c4nc5c(-c6cccc(F)c6)nccc5[nH]4)c3n2)c1 |  |  |  |  |  |  |  | 120 | 46 | 20.6 |  |  | 60.4 |
| CN1CCN(c2cc(Nc3ncc4c(-c5ccc6ncccc6c5)c[nH]c4n3)ccn2)CC1 | 73.4 | 9980 | inactive |  |  |  |  | 284 | 1 | 30 | inactive |  |  |
| CCCC(=O)Nc1cncc(-c2ccc3[nH]nc(-c4nc5c(-c6ccsc6)cncc5[nH]4)c3n2)c1 |  |  |  |  |  |  |  | 3600 | 46 | 20.6 |  |  | 58.4 |
| CC(C)Nc1cncc(-c2ccc3[nH]nc(-c4nc5c(-c6cc(F)cc(NCCN(C)C)c6)cncc5[nH]4)c3n2)c1 |  | 3000 |  | 96.8 |  |  |  | 1660 | 9 | 300 |  |  |  |
| CN1CCN(c2nccc3[nH]c(-c4n[nH]c5ncc(-c6cncc(CN7CCCCC7)c6)cc45)cc23)CC1 |  |  |  |  |  | 9 | 1900 | > 10000 | 11 |  |  | 50.7 |  |
